Source: US8916558B2, “Powders for reconstitution” (Tibotec Pharmaceuticals Ltd., priority 2007, dated 2014)

Assay: Solubility of TMC278 in water (statement)
Assay type: physicochemical
Conditions: free base; background statement

solubility in water: poorly soluble in water
SMILES: Cc1cc(C=CC#N)cc(C)c1Nc1ccnc(Nc2ccc(C#N)cc2)n1 [TMC278, 4-[[4-[[4-(2-cyano-ethenyl)-2,6-dimethylphenyl]-amino]-2-pyrimidinyl]-amino]-benzonitrile]
